Results published in PubChem BioAssay (NCI).
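Five compound concentrations were applied to cells in 96-well plates for 48 hours; endpoints were derived by simple linear interpolation of the resulting dose-response curve. GI50: concentration for 50% inhibition of growth. TGI marks complete inhibition of growth.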

Columns and labels:
Assay in all cases: inhibition of tumour cell growth, NCI panel, 48 h
[1] = test system: COLO 205 colon
[2] = test system: UO-31 renal
[3] = test system: A549 NSCLC
[4] = test system: MDA-MB-231 breast
[5] = test system: RPMI-8226 leukemia
[6] = test system: SK-MEL-5 melanoma
[7] = test system: HS 578T breast
[8] = test system: HT29 colon
[9] = test system: HOP-92 NSCLC
[10] = test system: DU-145 prostate

## CC(C)(CO)N=Cc1ccccc1[O-].CC(C)(CO)N=Cc1ccccc1[O-].[Co+2]
[1]
  GI50: 55.9 µM
  TGI: > 100 µM
[2]
  GI50: 44.9 µM
  TGI: > 100 µM
[3]
  GI50: > 100 µM
  TGI: > 100 µM
[4]
  GI50: > 74.9 µM
  TGI: > 100 µM
[5]
  GI50: 30.2 µM
  TGI: > 93 µM
[6]
  GI50: 42.5 µM
  TGI: > 100 µM
[7]
  GI50: > 100 µM
  TGI: > 100 µM
[8]
  GI50: 100 µM
  TGI: > 100 µM
[9]
  GI50: 12.9 µM
  TGI: 95.7 µM
[10]
  GI50: 42.1 µM
  TGI: > 100 µM
